Experiments:
wheat = test: Test B pre/postemergence wheat; assay type: in vivo, Triticum aestivum
Outline: (§1)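 Herbicidal effect was estimated by eye on a ten-point control scale after plants spent twelve to sixteen days in a greenhouse following soil or foliar treatment. Foliar sprays targeted plants at one to four leaves; all doses were formulated in a non-phytotoxic solvent with surfactant.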

pigweed = test: Test B pre/postemergence pigweed; assay type: in vivo, Amaranthus retroflexus
Outline: as §1

corn = test: Test B pre/postemergence corn; assay type: in vivo, Zea mays
Outline: as §1

rape = test: Test B pre/postemergence rape; assay type: in vivo, Brassica napus
Outline: as §1

purple nutsedge = test: Test B pre/postemergence purple nutsedge; assay type: in vivo, Cyperus rotundus
Outline: as §1

blackgrass = test: Test B pre/postemergence blackgrass; assay type: in vivo, Alopecurus myosuroides
Outline: as §1

sugar beet = test: Test B pre/postemergence sugar beet; assay type: in vivo, Beta vulgaris
Outline: as §1

crabgrass = test: Test B pre/postemergence crabgrass; assay type: in vivo, Digitaria sanguinalis
Outline: as §1

cocklebur = test: Test B pre/postemergence cocklebur; assay type: in vivo, Xanthium strumarium
Outline: as §1

soybean = test: Test B pre/postemergence soybean; assay type: in vivo, Glycine max
Outline: as §1

giant foxtail = test: Test B pre/postemergence giant foxtail; assay type: in vivo, Setaria faberii
Outline: as §1

surinam grass = test: Test B pre/postemergence surinam grass; assay type: in vivo, Brachiaria decumbens
Outline: as §1

[1] = Preemergence, Rate 62 g/ha, scale of 0 to 10 where 0 is no effect and 10 is complete control
[2] = Preemergence, Rate 125 g/ha, 0 is no effect, 10 is complete control
[3] = Preemergence, Rate 250 g/ha, scale 0 to 10, 0 is no effect, 10 is complete control
[4] = Preemergence, Rate 500 g/ha, scale 0 to 10 (0 no effect, 10 complete control)
[5] = Rate 250 g/ha, Postemergence, scale 0 to 10, 0 is no effect, 10 is complete control
[6] = Rate 500 g/ha, Postemergence, scale 0 to 10
[7] = Postemergence, Rate 125 g/ha, scale of 0 to 10 where 0 is no effect and 10 is complete control
[8] = Rate 62 g/ha, Postemergence, scale of 0 to 10 where 0 is no effect and 10 is complete control

SMILES: CC(C)N(C(=O)n1oc(=O)n([C@@H](C)c2ccccc2)c1=O)c1ccc(Cl)cc1 [Compound 174]
- Wheat plant response rating (wheat; [1]): 0
- Wheat plant response rating (0 to 10 scale) (wheat; [2]): 0
- Wheat plant response rating (wheat; [3]): 0
- Wheat plant response rating (wheat; [4]): 0
- Plant response rating, Wheat (wheat; [5]): 0
- Wheat plant response rating (wheat; [6]): 0
- Redroot pigweed plant response rating (pigweed; [7]): 4
- Redroot pigweed plant response rating (pigweed; [1]): 0
- Redroot pigweed plant response rating (0 to 10 scale) (pigweed; [2]): 6
- Redroot pigweed plant response rating (pigweed; [3]): 8
- Redroot pigweed plant response rating (pigweed; [4]): 9
- Redroot pigweed plant response rating (pigweed; [8]): 0
- Plant response rating, Redroot pigweed (pigweed; [5]): 6
- Redroot pigweed plant response rating (pigweed; [6]): 6
- Corn plant response rating (corn; [7]): 0
- Corn plant response rating (corn; [1]): 0
- Corn plant response rating (0 to 10 scale) (corn; [2]): 0
- Corn plant response rating (corn; [3]): 0
- Corn plant response rating (corn; [4]): 0
- Corn plant response rating (corn; [8]): 0
- Plant response rating, Corn (corn; [5]): 0
- Corn plant response rating (corn; [6]): 0
- Rape plant response rating (rape; [7]): 0
- Rape plant response rating (rape; [1]): 0
- Rape plant response rating (0 to 10 scale) (rape; [2]): 0
- Rape plant response rating (rape; [3]): 0
- Rape plant response rating (rape; [4]): 4
- Rape plant response rating (rape; [8]): 0
- Plant response rating, Rape (rape; [5]): 0
- Rape plant response rating (rape; [6]): 2
- Nutsedge plant response rating (purple nutsedge; [7]): 0
- Nutsedge plant response rating (purple nutsedge; [1]): 0
- Nutsedge plant response rating (0 to 10 scale) (purple nutsedge; [2]): 0
- Nutsedge plant response rating (purple nutsedge; [8]): 0
- Plant response rating, Nutsedge (purple nutsedge; [5]): 0
- Nutsedge plant response rating (purple nutsedge; [6]): 0
- Blackgrass plant response rating (blackgrass; [7]): 0
- Blackgrass plant response rating (blackgrass; [1]): 0
- Blackgrass plant response rating (0 to 10 scale) (blackgrass; [2]): 2
- Blackgrass plant response rating (blackgrass; [3]): 2
- Blackgrass plant response rating (blackgrass; [4]): 2
- Blackgrass plant response rating (blackgrass; [8]): 0
- Plant response rating, Blackgrass (blackgrass; [5]): 0
- Blackgrass plant response rating (blackgrass; [6]): 3
- Sugarbeets plant response rating (sugar beet; [7]): 0
- Sugarbeets plant response rating (sugar beet; [1]): 3
- Sugarbeets plant response rating (0 to 10 scale) (sugar beet; [2]): 3
- Sugarbeets plant response rating (sugar beet; [3]): 6
- Sugarbeets plant response rating (sugar beet; [4]): 6
- Sugarbeets plant response rating (sugar beet; [8]): 0
- Plant response rating, Sugarbeets (sugar beet; [5]): 6
- Sugarbeets plant response rating (sugar beet; [6]): 6
- Crabgrass plant response rating (crabgrass; [7]): 4
- Crabgrass plant response rating (crabgrass; [1]): 2
- Crabgrass plant response rating (0 to 10 scale) (crabgrass; [2]): 8
- Crabgrass plant response rating (crabgrass; [3]): 8
- Crabgrass plant response rating (crabgrass; [4]): 10
- Crabgrass plant response rating (crabgrass; [8]): 2
- Plant response rating, Crabgrass (crabgrass; [5]): 7
- Crabgrass plant response rating (crabgrass; [6]): 8
- Cocklebur plant response rating (cocklebur; [7]): 1
- Cocklebur plant response rating (cocklebur; [1]): 0
- Cocklebur plant response rating (0 to 10 scale) (cocklebur; [2]): 0
- Cocklebur plant response rating (cocklebur; [3]): 0
- Cocklebur plant response rating (cocklebur; [4]): 0
- Cocklebur plant response rating (cocklebur; [8]): 0
- Plant response rating, Cocklebur (cocklebur; [5]): 2
- Cocklebur plant response rating (cocklebur; [6]): 3
- Soybean plant response rating (soybean; [7]): 2
- Soybean plant response rating (soybean; [1]): 0
- Soybean plant response rating (0 to 10 scale) (soybean; [2]): 0
- Soybean plant response rating (soybean; [3]): 0
- Soybean plant response rating (soybean; [4]): 0
- Soybean plant response rating (soybean; [8]): 2
- Plant response rating, Soybean (soybean; [5]): 2
- Soybean plant response rating (soybean; [6]): 4
- Giant foxtail plant response rating (giant foxtail; [7]): 0
- Giant foxtail plant response rating (giant foxtail; [1]): 8
- Giant foxtail plant response rating (0 to 10 scale) (giant foxtail; [2]): 9
- Giant foxtail plant response rating (giant foxtail; [3]): 10
- Giant foxtail plant response rating (giant foxtail; [4]): 10
- Giant foxtail plant response rating (giant foxtail; [8]): 0
- Plant response rating, Giant foxtail (giant foxtail; [5]): 0
- Giant foxtail plant response rating (giant foxtail; [6]): 1
- B. signalgrass plant response rating (surinam grass; [7]): 0
- B. signalgrass plant response rating (surinam grass; [1]): 0
- B. signalgrass plant response rating (0 to 10 scale) (surinam grass; [2]): 0
- B. signalgrass plant response rating (surinam grass; [3]): 0
- B. signalgrass plant response rating (surinam grass; [4]): 4
- B. signalgrass plant response rating (surinam grass; [8]): 0
- Plant response rating, B. signalgrass (surinam grass; [5]): 0
- B. signalgrass plant response rating (surinam grass; Rate 500 g/ha, Postemergence, scale 0 to 10, 0 no effect, 10 complete control): 0

Source: patent US6737383B1, “Herbicidal oxadiazolidines” (priority 1999, dated 2004)
